Data taken from US20060100215A1, “8A,9-dihydro-4aH-isothiazolo[5,4-b]quinoline-3,4-diones and related compounds as anti-infective agents” (priority 2004, published 2006).
Values after ≈ are worked out from the molar mass of the structure shown.

Tests used:
E. coli ATCC 25922 = assay: Minimum inhibitory concentration (MIC) assay, broth microdilution; format: cell-based; conditions: Escherichia coli, ATCC25922, Mueller-Hinton II broth, 37° C., 18 to 24 hours, lowest concentration that inhibited visible growth
Method: (§1) The antimicrobial activity of the compounds of the invention may be evaluated by a number of methods, including the following visual minimum inhibitory concentration (MIC) assay. This assay determines the minimum concentration of compound required to inhibit growth of a bacterial strain. Minimum Inhibitory Concentration (MIC) Assay Whole-cell antibacterial activity is determined by broth microdilution using conditions recommended by the NCCLS (see National Committee for Clinical Laboratory Standards. 2001. Performance standards for antimicrobial susceptibility testing: 11th informational supplement. Vol. 21, no. 1, M100-S11. National Committee for Clinical Laboratory Standards, Wayne, Pa.). Test compounds are dissolved in DMSO and diluted 1:50 in Mueller-Hinton II broth (Becton-Dickinson) to produce a 256 μg/ml stock solution. In a 96-well microtiter plate, the compound solution is serially two-fold diluted in Mueller-Hinton II broth. After the compounds are diluted, a 50 μl aliquot of the test organism (˜1×10^6 cfu/mL) is added to each well of the microtiter plate. The final test concentrations ranges from 0.125-128 μg/mL. Inoculated plates are incubated in ambient air at 37° C. for 18 to 24 hours. The organisms selected for testing included laboratory strains S. aureus ATCC 29213 and E. coli ATCC 25922 (strains purchased from American Type Culture Collection, Manassas, Va.). The minimum inhibitory concentration (MIC) is determined as the lowest concentration of compound that inhibited visible growth of the test organism.

S. aureus ATCC 29213 = assay: as above; format: cell-based; conditions: Staphylococcus aureus, ATCC29213, Mueller-Hinton II broth, 37° C., 18 to 24 hours, lowest concentration that inhibited visible growth
Method: as §1

Compound | MIC (E. coli ATCC 25922) | MIC (S. aureus ATCC 29213)
CO/N=C1\CN(c2cc3c(cc2F)c(=O)c2c(=O)[nH]sc2n3C2CC2)CC1CO (stereo not drawn) [Compound 41, 9-Cyclopropyl-6-fluoro-7-(3-hydroxymethyl-4-methoxyimino-pyrrolidin-1-yl)-9H-isothiazolo[5,4-b]quinoline-3,4-dione] | < 0.1 mg/L | < 0.05 mg/L
CO/N=C1\CN(c2nc3c(cc2F)c(=O)c2c(=O)[nH]sc2n3C2CC2)CC1CN (stereo not drawn) [Compound 42, 7-(3-Aminomethyl-4-methoxyimino-pyrrolidin-1-yl)-9-cyclopropyl-6-fluro-9H-1-thia-2,8,9-triaza-cyclopenta[b]naphtalene-3,4-dione] | < 0.125 mg/L | < 0.1 mg/L
CO/N=C1\CN(c2c(F)cc3c(=O)c4c(=O)[nH]sc4n(C4CC4)c3c2OC)CC1CN (stereo not drawn) [Compound 39, 7-(3-Aminomethyl-4-methoxyimino-pyrrolidin-1-yl)-9-cyclopropyl-6-fluoro-8-methoxy-9H-isothiazolo[5,4-b]quinoline-3,4-dione] | 0.125 mg/L (≈ 0.279 µM) | < 0.05 mg/L

The next lines start with the values.

MIC (E. coli ATCC 25922) | MIC (S. aureus ATCC 29213) | Compound
< 0.05 mg/L | < 0.05 mg/L | CO/N=C1\CN(c2cc3c(cc2F)c(=O)c2c(=O)[nH]sc2n3C2CC2)CC1(C)CN (stereo not drawn) [Compound 27]
< 0.05 mg/L | 0.05 mg/L (≈ 0.12 µM) | CO/N=C1\CN(c2cc3c(cc2F)c(=O)c2c(=O)[nH]sc2n3C2CC2)CC1CN (stereo not drawn) [Compound 13]
< 0.05 mg/L | < 0.05 mg/L | CON=C1CCN(c2cc3c(cc2F)c(=O)c2c(=O)[nH]sc2n3C2CC2)CC1 [Compound 32, 9-Cyclopropyl-6-fluoro-7-(4-methoxyimino-piperidin-1-yl)-9H-isothiazolo[5,4-b]quinoline-3,4-dione]
